Laboratory results: patent publication US20040122081A1, “Pharmaceutical compositions and methods of using taxane derivatives” (priority 2002, published 2004)
Values after ≈ are worked out from the molar mass of the structure shown. Values joined by “and” are separate entries in the source; they are usually repeats but may differ in a detail not shown here. Equal values may be shown once. Read-outs that look alike come from different tables or passages of the source.

Experiments:
Format in all cases: physicochemical
[1] = Intrinsic aqueous solubility; settings: water
Description: Therefore, it was necessary to formulate the compound in such a way to get the desired solubility at a physiological pH and maintain stability prior to administration.

[2] = Solubility of compound in a co-solvent:water mixture; settings: aqueous with cosolvent or surfactant or cyclodextrin, thermodynamic from solid, stirred over 16 hours
Description: Approximately 25 mg of drug substance was added to 2 mL aqueous solution of ethanol (33%, 50% and 75% v/v). An additional 10 mg of drug substance was added to the 75% sample as all drug appeared to dissolve. A similar study was performed by adding approximately 25 mg drug substance to 2 mL aqueous solution of tertiary butyl alcohol (33%, 50% and 66% v/v). Samples were stirred for over 16 hours, filtered through 0.45μ nylon syringe filters, diluted and analyzed by HPLC for drug concentration. The results shown in Table I indicate that among the conditions evaluated, 75% v/v dehydrated alcohol in water for injection provided the highest solubility. Based on the results of these studies, a formulation of 15 mg/mL drug substance in 75% v/v ethanol:water was selected for further studies.

[3] = Effect of pH on drug substance stability in ethanol:buffer solutions; settings: for % Compound Remaining / Total Impurity Index: 1 mg/mL in 75% v/v ethanol:0.01M tartrate, 18 days 50° C.
Description: The effect of pH on the drug substance stability was also studied. The buffer pH providing maximum stability was determined by comparing the stability of prototype formulations of the drug substance. […] Relative area percents of drug peaks were evaluated following 2 days storage at 85° C. […] Subsequent experiments evaluated stability (1 mg drug/mL) in 75% v/v ethanol:0.01M tartrate buffers. Three mL aliquots of samples were dispensed into 5 cc Type I glass vials and closed with West 4405/50 20 mm stoppers. Percent drug substance remaining, and impurities were evaluated following 18 days storage at 50° C. and compared to initial values.

[4] = Solubility in aqueous dehydrated alcohol / POE castor oil solutions; settings: aqueous dehydrated alcohol/POE castor oil solution, 24 °C, aqueous with cosolvent or surfactant or cyclodextrin, thermodynamic from solid, stirred 16 hours, read-out: Drug Solubility
Description: However, this solution cannot be injected directly into patients as the non-aqueous components exceed 20%, thus potentially causing irritation at the injection site. […] It has been shown that the precipitation can be avoided by inclusion of a co-solvent such as polyoxyethylated (POE) castor oil in the formulation. Subsequently, solubility of the drug substance was determined in solutions containing various amounts of dehydrated alcohol and POE castor oil. Approximately 20 mg of drug was added to 3 mL aliquots of the solutions shown below in Table III. Samples were stirred for 16 hours, filtered trough 0.45 micron nylon syringe filters and analyzed by HPLC for drug concentration.

[5] = Solubility in prototype formulation (75% v/v dehydrated alcohol, 10 mM tartrate buffer, apparent pH 5.4); settings: aqueous with cosolvent or surfactant or cyclodextrin, thermodynamic from solid
Description: Solubility of four lots of drug substance was evaluated in the prototype formulation developed; 75% v/v dehydrated alcohol, 10 mM tartrate buffer resulting in an apparent pH of 5.4. 15 mg/mL of drug substance were used. 5 mL aliquots of the solution were dispensed into glass vials and an additional (˜50 mg) of drug substance was added. The vials were closed, sealed and stirred for 16 hours at room temperature. Samples were filtered and analyzed by HPLC for drug concentration.

[6] = Stability of solution in presence of POE castor oil at 50° C.; settings: for Potency / Total Impurities: solution containing dehydrated alcohol and POE castor oil
Description: As shown below, the stability of the solution containing POE castor oil was much lower than the injection solution without the co-solvent.

[7] = Equilibrium solubility in diluted drug product (mixed two-vial formulation); settings: 7.5% ethanol, 4% POE castor oil in tartrate buffer; for solubility thermodynamic at 16 h: 24 °C
Description: A study was also undertaken to determine the equilibrium solubility of Compound Ia in the mixture obtained by mixing the contents of the two vial formulation. Ten milliliters of the mixed solution was transferred into four 10 cc Type I flint glass vials. To each of these aliquots, approximately 25 mg of drug substance was added. A different lot of drug substance was added to each vial. Vials were closed with West Teflon-faced stoppers, sealed with aluminum seals and stirred for 16 hours at room temperature, protected from light. Samples were filtered through 0.45 micron hydrophilic PVDF membranes and analyzed by HPLC for drug concentration. Solubility results are listed below in Table VI. […] Samples were prepared and stirred at 24±3° C. for about 5 hours and placed in a 5±3° C. storage chamber for about 17 hours. Upon removal from the storage chamber, samples were immediately filtered and analyzed by HPLC for drug concentration.

[8] = Dilution of drug solution with aqueous diluents; settings: 15 mg/mL drug solution (75% ethanol/10 mM tartrate buffer, apparent pH 5.4) diluted with 0.9% sodium chloride injection or 5% dextrose injection
[9] = Buffer pH 2.6, apparent pH 3.88
[10] = Buffer pH 3.0, apparent pH 4.67
[11] = Buffer pH 3.5, apparent pH 5.15
[12] = Buffer pH 3.6, apparent pH 5.20
[13] = Buffer pH 3.8, apparent pH 5.39
[14] = Buffer pH 4.0, apparent pH 5.69
[15] = Buffer pH 4.0, apparent pH 5.81
[16] = Buffer pH 4.2, apparent pH 5.99
[17] = Buffer pH 4.4, apparent pH 6.24

Structure (SMILES): CSCO[C@H]1C[C@H]2OC[C@@]2(OC(C)=O)[C@H]2[C@H](OC(=O)c3ccccc3)[C@]3(O)C[C@H](OC(=O)[C@H](O)[C@@H](NC(=O)c4ccccc4)c4ccccc4)C(C)=C([C@@H](OC(C)=O)C(=O)[C@]12C)C3(C)C [Compound Ia, 7-O-methylthiomethylpaclitaxel]
- solubility [1]: < 0.1 µg/mL
- solubility ([2]; ethanol:water mixture, Dehydrated Alcohol, USP 33% v/v in water): 30 µg/mL (≈ 32.8 µM)
- solubility ([2]; ethanol:water mixture, Dehydrated Alcohol, USP 50% v/v in water): 1640 µg/mL (≈ 1790 µM)
- solubility ([2]; ethanol:water mixture, Dehydrated Alcohol, USP 75% v/v in water): > 17500 µg/mL
- solubility ([2]; tertiary butyl alcohol:water mixture, Tertiary Butyl Alcohol 33% v/v in water): 190 µg/mL (≈ 208 µM)
- solubility ([2]; tertiary butyl alcohol:water mixture, Tertiary Butyl Alcohol 50% v/v in water): 3130 µg/mL (≈ 3420 µM)
- solubility ([2]; tertiary butyl alcohol:water mixture, Tertiary Butyl Alcohol 66% v/v in water): 13000 µg/mL (≈ 14200 µM)
- buffer pH at which the best stability was achieved ([3]; 0.2 mg drug/mL in 16.7% v/v ethanol:0.1M citrate buffers, 2 days storage at 85° C., HPLC relative area percent): 4.5
- apparent pH of the most stable solution ([3]; 1 mg drug/mL in 75% v/v ethanol:0.01M tartrate buffers, 18 days at 50° C., corresponds to tartrate buffer pH 3.8): 5.4
- % Compound Remaining [3, 9]: 94.4%
- Total Impurity Index [3, 9]: 4.16 Area %
- % Compound Remaining [3, 10]: 97.1%
- Total Impurity Index [3, 10]: 2.51 Area %
- % Compound Remaining [3, 11]: 97.1%
- Total Impurity Index [3, 11]: 2.06 Area %
- % Compound Remaining [3, 12]: 98.1%
- Total Impurity Index [3, 12]: 1.36 Area %
- % Compound Remaining [3, 13]: 101%
- Total Impurity Index [3, 13]: 1.34 Area %
- % Compound Remaining [3, 14]: 100%
- Total Impurity Index [3, 14]: 1.62 Area %
- % Compound Remaining [3, 15]: 98.1%
- Total Impurity Index [3, 15]: 1.99 Area %
- % Compound Remaining [3, 16]: 99%
- Total Impurity Index [3, 16]: 1.67 Area %
- % Compound Remaining [3, 17]: 100%
- Total Impurity Index [3, 17]: 1.84 Area %
- solubility at 16 h ([4]; Aqueous vehicle: Dehydrated Alcohol 3.75% v/v, POE Castor Oil 2% v/v): 960 µg/mL (≈ 1050 µM)
- solubility at 16 h ([4]; Aqueous vehicle: Dehydrated Alcohol 7.50% v/v, POE Castor Oil 4% v/v): > 1500 µg/mL
- solubility at 16 h ([4]; Aqueous vehicle: Dehydrated Alcohol 9.375% v/v, POE Castor Oil 5% v/v): 2910 µg/mL (≈ 3180 µM)
- solubility thermodynamic ([5]; 5 °C, 5±3° C., read-out: equilibrium solubility): 23000 µg/mL (≈ 25200 µM)
- solubility at 16 h ([5]; 25 °C, room temperature, average of four lots): ~22000 µg/mL (≈ 24100 µM)
- Potency ([6]; 6 days @ 50° C.): 2000 µg/mL
- Total Impurities ([6]; 6 days @ 50° C.): 10.9
- Potency ([6]; 16 days @ 50° C.): 1900 µg/mL
- Total Impurities ([6]; 16 days @ 50° C.): 16.5
- Potency ([6]; Initial): 2200 µg/mL
- Total Impurities ([6]; Initial): 2.1
- % potency remaining ([6]; injection solution (ethanol, pH 5.4 tartrate buffer) w/o POE castor oil, 28 days stored at 50° C.): 100%
- % potency remaining ([6]; injection solution (ethanol, pH 5.4 tartrate buffer) with POE castor oil 4%, 16 days stored at 50° C.): 86%
- solubility thermodynamic ([7]; 5 °C, aqueous with cosolvent or surfactant or cyclodextrin, thermodynamic from solid, 5 ± 3° C.): 2460 µg/mL (≈ 2690 µM)
- solubility thermodynamic at 16 h ([7]; aqueous with cosolvent or surfactant or cyclodextrin, thermodynamic from solid, 24 ± 3° C., individual lots of drug substance, read-out: Equilibrium Solubility in Diluted Drug Product): 2580 µg/mL (≈ 2820 µM)
- solubility thermodynamic at 16 h ([7]; aqueous with cosolvent or surfactant or cyclodextrin, thermodynamic from solid, Average @ 24 ± 3° C., four lots, read-out: Equilibrium Solubility in Diluted Drug Product, Average): ~2580 µg/mL (≈ 2820 µM)
- Equilibrium Solubility in Diluted Drug Product ([7]; 24 ± 3° C., individual lots of drug substance): 2570 µg/mL and 2620 µg/mL and 2560 µg/mL
- Equilibrium Solubility in Diluted Drug Product, Average ([7]; Average @ 24 ± 3° C., four lots): 2580 µg/mL
- outcome of dilution with aqueous diluents [8]: drug precipitation
